assay: recombinant UMI read abundance after kanamycin selection (control-corrected) (log10(CPM+1)); higher = more efficient recombination; extreme values may be limits of the assay; sequences stand for … in AGTGCAGAGAAAATCGGCCAGTTTTCTCTGCCTGCAGTCCGCATGCCGTGGGACCCCTTGGGTTCTAACCTGTTGCCTAGATTTATGCAGCGGACTGCCTTTCTCCCAAAGTGATAAACCGG…AGGTTGGTTTCACT; site = the 11-nt donor
Method: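 Pooled E. coli donor-specificity screen for the IS621 bridge recombinase. Each library member carries a reprogrammed 11-nt donor and a full-length LE bridge RNA expressed in cis from the natural promoter, with a paired donor-binding loop (8-nt LDG + 4-nt RDG) and a target-binding loop fixed to T5. It is co-electroporated with a T5 target plasmid; recombinase is induced with 0.07 mM IPTG and recombinants are selected on kanamycin. UMIs are counted as CPM, averaged over two biological replicates and corrected by the unselected control. Molecule = full bridge RNA written as DNA, built from the T5 scaffold: LDG = donor specificity nt 1-8, RDG = reverse complement of nt 8-11.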
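Note: IS621 bridge recombinase in Escherichia coli cells against a fixed T5 target plasmid.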

Row | Sequence | recombinant UMI read abundance (log10)
1 | GTAGTCGCATGGACCGGTTTTCCCGGTAATCCGTATTTGCA (site GTAGTCGCTTG) | 2.68
2 | CCCCACACATGGACCGGTTTTCCCGGTAATCCGTATTTGTA (site CGCCACACTTA) | 0.016
3 | AGGATGACATGGACCGGTTTTCCCGGTAATCCGTATTTGCA (site AGGACGACTTG) | 1.16
4 | CGAAGTCCATGGACCGGTTTTCCCGGTAATCCGTATTTGCG (site CGAAGTCCTCG) | 1.21
5 | CGTTAGACATGGACCGGTTTTCCCGGTAATCCGTATTTGAG (site GGTTAGACTCT) | 0.0132
6 | ATCCTAGCATGGACCGGTTTTCCCGGTAATCCGTATTTGAG (site ATCCTAGCTCT) | 0.651
7 | AAGTATGCATGGACCGGTTTTCCCGGTAATCCGTATTTGGA (site AAATATGCTTC) | 0.814
8 | ATATCTACATGGACCGGTTTTCCCGGTAATCCGTATTTGTG (site ACATCTACTCA) | 0.246
9 | CTGTTCGCATGGACCGGTTTTCCCGGTAATCCGTATTTGTA (site CTGTTCGCTTA) | 2.09
10 | ACAACTACATGGACCGGTTTTCCCGGTAATCCGTATTTGTG (site ACACCTACTCA) | 0.0441
11 | CAAATCCCATGGACCGGTTTTCCCGGTAATCCGTATTTGCT (site CAAATCCCTAG) | 0
12 | TAATAAGCATGGACCGGTTTTCCCGGTAATCCGTATTTGGG (site TAATTAGCTCC) | 0.507
13 | GTTACAACATGGACCGGTTTTCCCGGTAATCCGTATTTGAT (site GTTACAACTAT) | 0.492
14 | ATCTTGGCATGGACCGGTTTTCCCGGTAATCCGTATTTGGG (site ATCTTGGCTCC) | 0.448
15 | CGGAATCCATGGACCGGTTTTCCCGGTAATCCGTATTTGTT (site CTGAATCCTAA) | 0.0031
16 | ACCTATACATGGACCGGTTTTCCCGGTAATCCGTATTTGGG (site ACCTACACTCC) | 0.0606
17 | GGTCCAACATGGACCGGTTTTCCCGGTAATCCGTATTTGTA (site GGTACAACTTA) | 0.00331
18 | TCGACCGCATGGACCGGTTTTCCCGGTAATCCGTATTTGCG (site TCGACCGCTCG) | 0.0218
19 | GTTGTTTCATGGACCGGTTTTCCCGGTAATCCGTATTTGGT (site GTTGTTCCTAC) | 0.00733
20 | TTGGAAACATGGACCGGTTTTCCCGGTAATCCGTATTTGCA (site ATGGAAACTTG) | 0
21 | GGGCCTGCATGGACCGGTTTTCCCGGTAATCCGTATTTGTG (site GGGCCTGCTCA) | 0.38
22 | TAAAGTCCATGGACCGGTTTTCCCGGTAATCCGTATTTGTA (site CAAAGTCCTTA) | 0.47
23 | GGGAAAACATGGACCGGTTTTCCCGGTAATCCGTATTTGCT (site GTGAAAACTAG) | 0
24 | AGGTCATCATGGACCGGTTTTCCCGGTAATCCGTATTTGCT (site CGATCATCTAG) | 0

Row | Sequence | recombinant UMI read abundance (log10)
25 | ATGCCGCCATGGACCGGTTTTCCCGGTAATCCGTATTTGGG (site ATGCCGCCTCC) | 0.0227
26 | CGAGGACCATGGACCGGTTTTCCCGGTAATCCGTATTTGCG (site CGAGGACCTCC) | 0.00697
27 | TTATAAGCATGGACCGGTTTTCCCGGTAATCCGTATTTGAG (site TTATAAGCTCT) | 1.65
28 | CTAGTACCATGGACCGGTTTTCCCGGTAATCCGTATTTGAT (site CTAGTACCTAT) | 0
29 | AATTATGCATGGACCGGTTTTCCCGGTAATCCGTATTTGGT (site AATTATGCTCC) | 0.00684
30 | CTTCTCTCATGGACCGGTTTTCCCGGTAATCCGTATTTGTA (site CCTCTCTCTTA) | 0.823
31 | CGGGATCCATGGACCGGTTTTCCCGGTAATCCGTATTTGTT (site CGGAATCCTAA) | 0.736
32 | ATCCAAGCATGGACCGGTTTTCCCGGTAATCCGTATTTGTG (site ATCCAAGCTCC) | 0.0133
33 | ACAGTAGCATGGACCGGTTTTCCCGGTAATCCGTATTTGTA (site ACAGTAGCTTA) | 2.87
34 | GCAAAGCCATGGACCGGTTTTCCCGGTAATCCGTATTTGGG (site GCTAAGCCTCC) | 0.0133
35 | CGGAATCCATGGACCGGTTTTCCCGGTAATCCGTATTTGTG (site CGGAATCCTGA) | 0
36 | CCAGGTCCATGGACCGGTTTTCCCGGTAATCCGTATTTGCA (site CCCGGTCCTTG) | 0
37 | AAACGTCCATGGACCGGTTTTCCCGGTAATCCGTATTTGAT (site AAGCGTCCTAT) | 0.266
38 | CACTTGACATGGACCGGTTTTCCCGGTAATCCGTATTTGCT (site TACTTGACTAG) | 0.365
39 | CAATGCTCATGGACCGGTTTTCCCGGTAATCCGTATTTGAA (site CAATGCACTTT) | 0.182
40 | TCCACCGCATGGACCGGTTTTCCCGGTAATCCGTATTTGCG (site TCCACCGCTGG) | 0
41 | CTCCCGACATGGACCGGTTTTCCCGGTAATCCGTATTTGGA (site CTCCCGACTTC) | 0.231
42 | CTTCTCTCATGGACCGGTTTTCCCGGTAATCCGTATTTGTA (site CTTCTCCCTTA) | 0.207
43 | CCGCATTCATGGACCGGTTTTCCCGGTAATCCGTATTTGCG (site CCGCATTCTCG) | 0.57
44 | ATTGTGCCATGGACCGGTTTTCCCGGTAATCCGTATTTGAC (site ATTGTGCCTGT) | 0.819
45 | ACCACCGCATGGACCGGTTTTCCCGGTAATCCGTATTTGCG (site TCCACCGCTCG) | 0.0102
46 | GCAGATCCATGGACCGGTTTTCCCGGTAATCCGTATTTGTC (site GCAGATCCTGA) | 0
47 | ATGACAACATGGACCGGTTTTCCCGGTAATCCGTATTTGGA (site ATGACAACTTC) | 1.22
48 | TGGCCGGCATGGACCGGTTTTCCCGGTAATCCGTATTTGAC (site TGGCCGGCTGG) | 0

Row | Sequence | recombinant UMI read abundance (log10)
49 | CTACTATCATGGACCGGTTTTCCCGGTAATCCGTATTTGAC (site CTAGTATCTGT) | 0
50 | TATCGAACATGGACCGGTTTTCCCGGTAATCCGTATTTGTT (site TATCGAACTAA) | 0.00888
51 | ATCTATACATGGACCGGTTTTCCCGGTAATCCGTATTTGAT (site ATCTATACTAT) | 1.02
52 | AGCCTATCATGGACCGGTTTTCCCGGTAATCCGTATTTGTT (site AGCCTAGCTAA) | 0.0191
53 | CAATGCTCATGGACCGGTTTTCCCGGTAATCCGTATTTGAA (site CAATCCTCTTT) | 0.0831
54 | CTACTATCATGGACCGGTTTTCCCGGTAATCCGTATTTGAC (site CTACTATCTGT) | 2.69
55 | GCTACTGCATGGACCGGTTTTCCCGGTAATCCGTATTTGCC (site GTTACTGCTGG) | 0.815
56 | CGATCATCATGGACCGGTTTTCCCGGTAATCCGTATTTGCT (site CTATCAACTAG) | 0
57 | CGGAATCCATGGACCGGTTTTCCCGGTAATCCGTATTTGTT (site CGGAATCCTCC) | 0.00652
58 | TCGCACACATGGACCGGTTTTCCCGGTAATCCGTATTTGGG (site TCGCACACTCC) | 0.0145
59 | TGGCCGGCATGGACCGGTTTTCCCGGTAATCCGTATTTGGT (site TGGCCGGCTTC) | 0.0272
60 | CGCCGTACATGGACCGGTTTTCCCGGTAATCCGTATTTGTT (site CGCCGTACTAG) | 0.486
61 | GTAGTCGCATGGACCGGTTTTCCCGGTAATCCGTATTTGCC (site GTAGTCGCTTG) | 2.39
62 | TGGTCCTCATGGACCGGTTTTCCCGGTAATCCGTATTTGTC (site TGGTCCTCTGA) | 1.33
63 | AGACTTTCATGGACCGGTTTTCCCGGTAATCCGTATTTGAC (site AGCCTTTCTGT) | 0
64 | TTTCTCACATGGACCGGTTTTCCCGGTAATCCGTATTTGCC (site TTTCTCACTGG) | 0.843
65 | CGATCATCATGGACCGGTTTTCCCGGTAATCCGTATTTGCT (site CGAACATCTAT) | 0.00401
66 | AGCTGCGCATGGACCGGTTTTCCCGGTAATCCGTATTTGAA (site AGCTGCGCTTT) | 1.4
67 | GTTGGGACATGGACCGGTTTTCCCGGTAATCCGTATTTGGC (site GTTGGGACTGC) | 1.53
68 | AAGTTCCCATGGACCGGTTTTCCCGGTAATCCGTATTTGTG (site ACGTTCCCTCA) | 0
69 | TTGTATACATGGACCGGTTTTCCCGGTAATCCGTATTTGGG (site TTGTATACTCC) | 0.00305
70 | AAAGCGCCATGGACCGGTTTTCCCGGTAATCCGTATTTGTG (site TAAGCGCCTCA) | 0.019
71 | ATGATAACATGGACCGGTTTTCCCGGTAATCCGTATTTGCC (site ATGATAACTGG) | 3.06
72 | AAAGTATCATGGACCGGTTTTCCCGGTAATCCGTATTTGCA (site ACAGTATCTTG) | 2.64
